# In US20190359645A1, “2'3'-CYCLIC DINUCLEOTIDES COMPRISING CARBOCYCLIC NUCLEOTIDE” (Institute of Organic Chemistry and Biochemistry ASCR, V.V.I., priority 2018, published 2019):
# Target: T1, AQ STING (G230A-R293Q) (Homo sapiens, UniProt Q86WV6, G230A/H232R/R293Q)
# T1 construct: truncated human WT STING or AQ STING (amino acid residues 140-343); 8xHis (N, cleaved yes); SUMO (N, cleaved yes); made in house; host or cells: E. coli Rosetta-gami B (DE3)
# Assay: Differential scanning fluorimetry (DSF) with AQ STING
# Type: binding
# Conditions: thermal shift, truncated human AQ STING 0.1 mg/ml, 150 μM CDN
# Source text: Both WT and AQ human STING (G230A-R^293Q) cDNA were amplified by the use of PCR (Phusion® High-Fidelity DNA Polymerase, cat. # M0530S, NEB, Ipswich, USA) using oligonucleotides hSTING140-BamH-For ([…]) (SEQ ID NO:5) and hSTING379-Not-Rev3 ([…]) (SEQ ID NO:6) from pUNOI-hSTING-WT (cat. # punol-hstingwt, InvivoGen, San Diego, USA) and pUNO1-hSTING-HAQ plasmids (punol-hsting-haq, InvivoGen, San Diego, USA). Purified PCR products were cleaved with restriction enzymes BamHI (cat. # R^0136S, NEB, Ipswich, USA) and NotI (cat. # R^0189S, NEB, Ipswich, USA) and cloned into the pSUMO vector linearized with the identical enzymes. Plasmid pSUMO was created by introducing 8-His-SUMO sequence between NdeI and BamHI sites of pHis-parallel2 plasmid (Clontech, Moutain View, USA). pSUMO-STING WT or pSUMO-STING AQ plasmids thus encoded truncated human WT STING or AQ STING (amino acid residues 140-343) with N-terminal 8×His and SUMO tag.
# The recombinant WT STING and AQ STING proteins were overexpressed in Rosetta-gami B (DE3) competent cells (cat. #71136-3, Merck Millipore, Billerica, USA). Bacterial pellets were re-suspended in ice-cold lysis buffer containing 50 mmol·l^−1 TrisCl (cat. # T1503, Sigma Aldrich, Czech Republic) pH 8.0, 300 mmol·l^−1 NaCl, 3 mmol·l^−1 (3-mercaptoethanol (cat. # M6250, Sigma Aldrich, Czech Republic), 10% glycerol (cat. #G5516, Sigma Aldrich, Czech Republic) and 20 mmol·l^−1 imidazole (cat. #15513, Sigma Aldrich, Czech Republic) using Dounce homogenizer. DNase I (cat. # D5025, Sigma Aldrich, Czech Republic) and RNase A (cat. # R^6513, Sigma Aldrich, Czech Republic) were added (final concentration 50 μg/ml) together with MgCl2 (final concentration 5 mmol·l^−1) to the homogenate and bacteria were lysed using French Press G-M™ High-Pressure Cell Press Homogenizer (1500 psi, 3 cycles). Lysate was spun 30,000 g for 20 minutes and supernatant was gently stirred with Ni-NTA resin (cat. #745400.25 Macherey-Nagel, Duren, Germany) for 30 minutes. The resin was poured into a chromatography column, washed with 50 ml buffer A (50 mmol·l^−1 TrisCl (pH 8.0), 800 mmol·l^−1 NaCl, 3 mmol·l^−1β-mercaptoethanol; 10% glycerol; 20 mmol·l^−1 imidazole) and 8-His-SUMO tagged STING proteins were eluted with 15 ml buffer A containing 300 mmol·l^−1 imidazole. The eluted proteins were cleaved with recombinant SUMO protease (80 pig/ml of protein solution, cat. #12588018, ThermoFisher, Waltham, USA). The proteins were further purified by size exclusion chromatography using HiLoad 16/60 Superdex 75 (cat. #28989333, GE Healthcare Bio-Sciences, Pittsburgh, USA) in 50 mmol·l^−1 Tris C1 buffer pH 7.4 containing 150 mmol·l^−1 NaCl, and 10% glycerol. Proteins were concentrated with Amicon® Ultra-15 10 K device (cat. # UFC901008, Merck Millipore, Billerica, USA) and flash frozen in liquid N2.
# WT and AQ allelic forms of STING protein were diluted to the final concentration 0.1 mg/ml in 100 mmol·l^−1 TrisCl buffer pH 7.4 containing, 150 mmol·l^−1 NaCl, 1:500 SYPRO Orange (cat. # S6650, ThermoFisher, Waltham, USA) and 150 μM CDN or water. 20 μL solutions of the reaction mixtures were pipetted in triplicates into 96 well optical reaction plates and thermal denaturation of samples were performed on real time PCR cycler (LightCycler® 480 Instrument II—Roche, Basel, Switzerland). The first derivative of the thermal denaturation curves was performed to calculate denaturing temperatures of STING-CDN complexes and STING apoproteins. The thermal shift for each CDN was calculated by subtracting the average denaturing temperature of STING apoprotein from the average denaturing temperature of STING CDN complex.
# T1 sequence (Q86WV6 140-343 G230A/H232R/R293Q): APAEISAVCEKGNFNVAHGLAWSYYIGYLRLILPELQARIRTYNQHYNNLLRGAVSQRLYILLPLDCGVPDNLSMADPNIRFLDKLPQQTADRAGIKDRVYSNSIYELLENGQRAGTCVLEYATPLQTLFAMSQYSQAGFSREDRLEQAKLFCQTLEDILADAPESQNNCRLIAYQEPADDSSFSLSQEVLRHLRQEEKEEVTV
row,SMILES,DSF ΔTm AQ STING [°C]
1,"Nc1ncnc2c1ncn2[C@@H]1O[C@@H]2COP(=O)(O)OC3C(O)[C@@H](COP(=O)(O)OC2C1O)C[C@H]3n1cnc2c(=O)[nH]cnc21 (stereo partly drawn) [Compound 121, (6R,8R,15R,17R)-8-(6-amino-9H-purin-9-yl)-3,9,12,18-tetrahydroxy-17-(6-oxo-6,9-dihydro-1H-purin-9-yl)-2,4,7,11,13-pentaoxa-3λ^5,12λ^5-diphosphatricyclo[13.2.1.0^6,10]octadecane-3,12-dione]",17.0

# Same assay, conditions: thermal shift, truncated human AQ STING 0.1 mg/ml, 150 μM CDN; read-out: DSF ΔTm AQ STING
row,SMILES,ΔTm at 150 µM [°C]
1,"Nc1ncc2ncn([C@@H]3O[C@@H]4COP(=O)(O)OC5C(O)[C@@H](COP(=O)(O)OC4C3O)C[C@H]5n3cnc4c(=O)[nH]cnc43)c2n1 (stereo partly drawn) [Compound 119, (6R,8R,15R,17R)-8-(2-amino-9H-purin-9-yl)-3,9,12,18-tetrahydroxy-17-(6-oxo-6,9-dihydro-1H-purin-9-yl)-2,4,7,11,13-pentaoxa-3λ^5,12λ^5-diphosphatricyclo[13.2.1.0^6,10]octadecane-3,12-dione]",13.7
2,"Nc1ncnc2c1ncn2[C@@H]1O[C@@H]2COP(=O)(O)OC3C(O)[C@@H](COP(=O)(O)OC2C1O)C[C@H]3n1cnc2c(=O)[nH]cnc21 (stereo partly drawn) [Compound 120, (6R,8R,15R,17R)-8-(6-amino-9H-purin-9-yl)-3,9,12,18-tetrahydroxy-17-(6-oxo-6,9-dihydro-1H-purin-9-yl)-2,4,7,11,13-pentaoxa-3λ^5,12λ^5-diphosphatricyclo[13.2.1.0^6,10]octadecane-3,12-dione]",18.3
3,"Nc1ncnc2c1ccn2[C@@H]1O[C@@H]2COP(=O)(O)OC3C(O)[C@@H](COP(=O)(O)OC2C1O)C[C@H]3n1cnc2c(=O)[nH]cnc21 (stereo partly drawn) [Compound 122, (6R,8R,15R,17R)-8-{4-amino-7H-pyrrolo[2,3-d]pyrimidin-7-yl}-3,9,12,18-tetrahydroxy-17-(6-oxo-6,9-dihydro-1H-purin-9-yl)-2,4,7,11,13-pentaoxa-3λ^5,12λ^5-diphosphatricyclo[13.2.1.0^6,10]octadecane-3,12-dione]",14.6
4,"Cc1cn([C@@H]2O[C@@H]3COP(=O)(O)OC4C(O)[C@@H](COP(=O)(O)OC3C2O)C[C@H]4n2cnc3c(=O)[nH]cnc32)c2ncnc(N)c12 (stereo partly drawn) [Compound 123, (6R,8R,15R,17R)-8-{4-amino-5-methyl-7H-pyrrolo[2,3-d]pyrimidin-7-yl}-3,9,12,18-tetrahydroxy-17-(6-oxo-6,9-dihydro-1H-purin-9-yl)-2,4,7,11,13-pentaoxa-3λ^5,12λ^5-diphosphatricyclo[13.2.1.0^6,10]octadecane-3,12-dione]",12.1
5,"Nc1ncnc2c1c(I)cn2[C@@H]1O[C@@H]2COP(=O)(O)OC3C(O)[C@@H](COP(=O)(O)OC2C1O)C[C@H]3n1cnc2c(=O)[nH]cnc21 (stereo partly drawn) [Compound 124, (6R,8R,15R,17R)-8-{4-amino-5-iodo-7H-pyrrolo[2,3-d]pyrimidin-7-yl}-3,9,12,18-tetrahydroxy-17-(6-oxo-6,9-dihydro-1H-purin-9-yl)-2,4,7,11,13-pentaoxa-3λ^5,12λ^5-diphosphatricyclo[13.2.1.0^6,10]octadecane-3,12-dione]",11.3
6,"CSc1ncnc2c1ncn2[C@@H]1O[C@@H]2COP(=O)(O)OC3C(O)[C@@H](COP(=O)(O)OC2C1O)C[C@H]3n1cnc2c(=O)[nH]cnc21 (stereo partly drawn) [Compound 125, (1S,6R,8R,9R,10S,15R,17R,18R)-3,9,12,18-tetrahydroxy-8-[16-(methylsulfanyl)-9H-purin-9-yl]-17-(6-oxo-6,9-dihydro-1H-purin-9-yl)-2,4,7,11,13-pentaoxa-3λ^5,12λ^5-diphosphatricyclo[13.2.1.0^6,10]octadecane-3,12-dione]",11.4
7,"Nc1ncnc2c1ncn2[C@@H]1O[C@@H]2COP(=O)(O)O[C@@H]3[C@@H](F)[C@@H](COP(=O)(O)O[C@H]2[C@H]1O)C[C@H]3n1cnc2c(=O)[nH]cnc21 [Compound 126, (1S,6R,8R,9R,10S,15R,17R,18S)-8-(6-amino-9H-purin-9-yl)-18-fluoro-3,9,12-trihydroxy-17-(6-oxo-6,9-dihydro-1H-purin-9-yl)-2,4,7,11,13-pentaoxa-3λ^5,12λ^5-diphosphatricyclo[13.2.1.0^6,10]octadecane-3,12-dione]",15.8
8,Nc1ncnc2c1ncn2[C@@H]1O[C@@H]2COP(=O)(O)O[C@@H]3[C@H](F)[C@@H](COP(=O)(O)O[C@H]2[C@H]1F)C[C@H]3n1cnc2c(=O)[nH]cnc21 [Compound 127],16.8
